Assay results as given in patent US20160318957A1, “CRYSTAL (1) OF PYRAZINO[2,1-c][1,2,4]TRIAZINE COMPOUND” (PRISM PHARMA CO., LTD., priority 2013, published 2016).

Experiments:
Assay type in all cases: physicochemical
[1] = Hygroscopicity evaluation by dynamic water adsorption measuring apparatus; details: 25° C., relative humidity range of 35-75% RH
Procedure: The hygroscopicity of crystal A obtained in Example 1 was evaluated by a dynamic water adsorption measuring apparatus. A sample mounting part of the apparatus was maintained at 25° C., and the relative humidity (RH) was set stepwisely within the range of 5-95% RH. The humidity was controlled by changing the relative flow of 0% RH dry nitrogen and 100% RH humidified nitrogen. The sample weight was confirmed at for 2 min intervals by a micro balance, and the humidity was sequentially changed at the time point when the weight shift range for 5 min was below 0.01%.

[2] = Evaluation of solid stability (impurity content by HPLC after preservation); details: for impurity content (%): HPLC 226 nm
Procedure: The solid obtained in Example 1 or Comparative Example 1 was preserved for 3 months under the following 3 kinds of preservation conditions. The absorbance at wavelength 226 nm was measured by high performance liquid chromatography (HPLC), and the content of impurity contained in the crystal was measured every other month.
From the peak area of the obtained chromatogram, a value obtained by dividing the total area of respective peaks other than the peak showing compound 1, by the total area of all the obtained peaks, from the peaks contained in the above-mentioned solid, was taken as impurity content (%), and is shown in Table 5.

[3] = Evaluation of thermal stability by X-ray-DSC
Procedure: Using X-ray diffraction-differential scanning simultaneous calorimetry apparatus (X-ray-DSC), whether the crystal form of crystal A obtained in Example 1 changes upon heating was observed.
When the temperature was around 90° C., the weight of crystal A decreased, and the powder X-ray diffraction pattern changed clearly.

[4] = Heating of crystal in an oven; details: oven at 50° C. overnight
Excerpt: First, an amorphous form of compound 1 is explained. Compound 1 can be produced by synthesize according to the method described in patent document 1.

[5] = preserved at 40° C./75% RH, 1 month later
[6] = preserved at 40° C./75% RH, 2 months later
[7] = preserved at 40° C./75% RH, 3 months later
[8] = preserved at 60° C., 1 month later
[9] = preserved at 60° C., 2 months later
[10] = preserved at 60° C., 3 months later
[11] = preserved at −20° C., 1 month later
[12] = preserved at −20° C., 2 months later
[13] = preserved at −20° C., 3 months later
[14] = heated from 40° C. to 100° C. at 1° C./min

C[C@H]1C2N(C(=O)CN(C)N2C(=O)NCc2ccccc2)[C@@H](Cc2ccc(OP(=O)(O)O)cc2)C(=O)N1Cc1cccc2cccnc12 (stereo partly drawn) [Example 1, 4-(((6S,9S)-1-(benzylcarbamoyl)-2,9-dimethyl-4,7-dioxo-8-(quinolin-8-ylmethyl)octahydro-1H-pyrazino[2,1-c][1,2,4]triazin-6-yl)methyl)phenyl dihydrogen phosphate]
hygroscopicity [1]: low hygroscopicity
weight change at the maximum [1]: about 2.5%
increase in the impurity content as compared to preservation at −20° C. ([2]; 40° C., 75% RH, 3 months later): about 1.6%
increase in the impurity content as compared to preservation at −20° C. ([2]; 60° C., 3 months later): not more than 0.5%
solid stability compared with amorphous form ([2]; high temperature conditions and high humidity conditions, 3 months): more stable than the amorphous form of Comparative Example 1
impurity content (%) [2, 5]: 0.65%
impurity content (%) [2, 6]: 1.02%
impurity content (%) [2, 7]: 1.80%
impurity content (%) [2, 8]: 0.53%
impurity content (%) [2, 9]: 0.59%
impurity content (%) [2, 10]: 0.72%
impurity content (%) [2, 11]: 0.24%
impurity content (%) [2, 12]: 0.17%
impurity content (%) [2, 13]: 0.24%
powder X-ray diffraction pattern at the endothermic peak (desorption of hydrated water) ([3]; 43° C.-48° C., heated at 1° C./min): did not change
temperature at which weight decreased and powder X-ray diffraction pattern changed clearly [3, 14]: around 90 °C
thermal stability [3, 14]: thermally stable

C[C@H]1C2N(C(=O)CN(C)N2C(=O)NCc2ccccc2)[C@@H](Cc2ccc(OP(=O)(O)O)cc2)C(=O)N1Cc1cccc2cccnc12 (stereo partly drawn) [Comparative Example 1, 4-(((6S,9S)-1-(benzylcarbamoyl)-2,9-dimethyl-4,7-dioxo-8-(quinolin-8-ylmethyl)octahydro-1H-pyrazino[2,1-c][1,2,4]triazin-6-yl)methyl)phenyl dihydrogen phosphate]
increase in the impurity content as compared to preservation at −20° C. ([2]; 40° C., 75% RH, 3 months later): about 4%
increase in the impurity content as compared to preservation at −20° C. ([2]; 60° C., 3 months later): not less than 1.1%
impurity content (%) [2, 5]: 3.35%
impurity content (%) [2, 6]: 4.62%
impurity content (%) [2, 7]: 6.51%
impurity content (%) [2, 8]: 3.10%
impurity content (%) [2, 9]: 3.41%
impurity content (%) [2, 10]: 3.68%
impurity content (%) [2, 11]: 2.46%
impurity content (%) [2, 12]: 2.60%
impurity content (%) [2, 13]: 2.57%

C[C@H]1C2N(C(=O)CN(C)N2C(=O)NCc2ccccc2)[C@@H](Cc2ccc(OP(=O)(O)O)cc2)C(=O)N1Cc1cccc2cccnc12 (stereo partly drawn) [Example 2, 4-(((6S,9S)-1-(benzylcarbamoyl)-2,9-dimethyl-4,7-dioxo-8-(quinolin-8-ylmethyl)octahydro-1H-pyrazino[2,1-c][1,2,4]triazin-6-yl)methyl)phenyl dihydrogen phosphate]
change of solid form on heating [4]: changes into an amorphous form
